Consider 12 compounds from ChEMBL document CHEMBL3585271 (Bioorg Med Chem, 2015).

Data set [1] deals with Amyloid-beta precursor protein (Homo sapiens) (UniProt P05067). The data set is described as follows: Inhibition of Cu2+-induced amyloid beta (1 to 42) aggregation (unknown origin) at 50 uM after 24 hrs by thioflavin T fluorescence assay (reference value: 100%). More on the design: scale not given: the % may be the effect or the level left.
The next data set is filed under the species Homo sapiens. Briefly: Selectivity index, ratio of IC50 for human recombinant MAO-A to IC50 for human recombinant MAO-B.
A further data set can be described thus: physchem. Particulars: PAMPA; call rule not given here.
For data set [2], the target named is T1, Amine oxidase [flavin-containing] A (Homo sapiens, UniProt P21397).
T1 sequence (P21397 whole entry): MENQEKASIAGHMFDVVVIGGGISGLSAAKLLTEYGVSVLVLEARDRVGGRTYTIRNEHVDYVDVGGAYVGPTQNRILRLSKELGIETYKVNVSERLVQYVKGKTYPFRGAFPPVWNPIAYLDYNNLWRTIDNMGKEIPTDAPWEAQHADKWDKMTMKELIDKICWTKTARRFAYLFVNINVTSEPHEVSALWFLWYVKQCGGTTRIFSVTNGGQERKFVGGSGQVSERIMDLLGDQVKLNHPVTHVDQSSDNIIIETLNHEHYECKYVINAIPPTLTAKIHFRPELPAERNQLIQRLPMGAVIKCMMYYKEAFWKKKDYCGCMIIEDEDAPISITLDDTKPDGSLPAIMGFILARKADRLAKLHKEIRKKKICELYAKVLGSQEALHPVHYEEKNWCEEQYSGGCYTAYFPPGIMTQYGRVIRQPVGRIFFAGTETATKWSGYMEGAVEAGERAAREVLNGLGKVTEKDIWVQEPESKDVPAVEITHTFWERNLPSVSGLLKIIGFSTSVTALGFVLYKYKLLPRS
Description: Inhibition of human recombinant MAO-A using p-tyramine as substrate incubated for 15 mins prior to substrate addition measured after 20 mins by fluorescence plate reader analysis

Data set [3] can be described thus: Antioxidant activity assessed as trolox equivalent of AAPH radical scavenging activity compound preincubated for 10 mins followed by AAPH challenge measured every min for 120 mins by ORAC-FL assay. Particulars: 2 h. It is filed as physicochemical.
Data set [4] deals with T2, Amine oxidase [flavin-containing] B (Homo sapiens, UniProt P27338).
T2 sequence (P27338 whole entry): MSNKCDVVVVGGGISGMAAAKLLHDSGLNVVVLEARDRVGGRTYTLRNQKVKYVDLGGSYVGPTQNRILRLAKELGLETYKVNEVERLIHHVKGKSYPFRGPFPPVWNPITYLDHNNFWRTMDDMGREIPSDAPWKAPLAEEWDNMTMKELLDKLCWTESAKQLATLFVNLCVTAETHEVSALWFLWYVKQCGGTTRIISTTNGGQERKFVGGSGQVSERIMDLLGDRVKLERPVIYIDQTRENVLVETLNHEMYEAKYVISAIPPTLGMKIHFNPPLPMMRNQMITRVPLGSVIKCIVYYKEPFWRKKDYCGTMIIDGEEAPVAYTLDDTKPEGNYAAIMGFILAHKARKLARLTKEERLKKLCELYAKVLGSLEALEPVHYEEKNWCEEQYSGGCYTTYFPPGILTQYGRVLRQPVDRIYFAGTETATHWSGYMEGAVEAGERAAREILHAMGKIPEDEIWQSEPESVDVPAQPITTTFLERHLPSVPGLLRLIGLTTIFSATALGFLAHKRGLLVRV
Description: Inhibition of human recombinant MAO-B using benzylamine as substrate incubated for 15 mins prior to substrate addition measured after 20 mins by fluorescence plate reader analysis

A short description of data set [5]: Metal chelating activity of the compound assessed as Fe2+ complex formation at 40 uM after 30 mins by UV-vis spectrometry. The format is physicochemical. Particulars: 0.5 h.
Data set [6] can be described thus: Metal chelating activity of the compound assessed as Cu2+ complex formation at 40 uM after 30 mins by UV-vis spectrometry. It is filed as physicochemical. The conditions noted are these: 0.5 h.
The nature of data set [7]: Metal chelating activity of the compound assessed as Zn2+ complex formation at 40 uM after 30 mins by UV-vis spectrometry. The format is physicochemical. The conditions noted are these: 0.5 h.

Chain of Amyloid-beta precursor protein (Homo sapiens) (P05067 whole entry): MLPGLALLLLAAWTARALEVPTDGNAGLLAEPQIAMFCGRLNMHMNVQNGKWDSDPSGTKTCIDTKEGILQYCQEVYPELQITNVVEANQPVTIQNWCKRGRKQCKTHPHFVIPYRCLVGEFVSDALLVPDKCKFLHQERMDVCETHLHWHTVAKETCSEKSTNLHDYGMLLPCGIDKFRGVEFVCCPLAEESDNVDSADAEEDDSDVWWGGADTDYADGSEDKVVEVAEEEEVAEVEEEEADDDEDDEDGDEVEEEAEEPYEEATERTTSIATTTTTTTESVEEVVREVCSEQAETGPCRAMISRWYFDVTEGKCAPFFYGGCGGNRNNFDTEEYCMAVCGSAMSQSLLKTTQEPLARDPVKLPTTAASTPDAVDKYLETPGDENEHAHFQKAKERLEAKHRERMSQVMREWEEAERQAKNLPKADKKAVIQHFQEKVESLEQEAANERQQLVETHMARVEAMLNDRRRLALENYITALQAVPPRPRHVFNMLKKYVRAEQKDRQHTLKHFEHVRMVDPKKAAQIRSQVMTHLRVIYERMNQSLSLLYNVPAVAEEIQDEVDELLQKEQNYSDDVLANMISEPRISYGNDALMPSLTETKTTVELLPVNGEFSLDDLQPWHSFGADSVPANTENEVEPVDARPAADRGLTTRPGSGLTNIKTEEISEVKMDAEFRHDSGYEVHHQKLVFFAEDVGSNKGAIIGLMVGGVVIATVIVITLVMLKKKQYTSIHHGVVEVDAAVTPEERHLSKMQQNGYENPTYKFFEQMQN
Description for physchem: Permeability of the compound at 100 ug/mL after 10 hrs by PAMPA-BBB assay

Consider `C#CCN(C)[C@H](C)Cc1ccc(NCc2cc(O)ccc2O)cc1`, for which the Activity in data set [1] came out at 63.1%; in data set [3] it was 5.67 µmol. Moreover, in the data set listed under Homo sapiens, the Ratio IC50 worked out at 2.4. In “physchem”, this compound yielded a Papp at 10 h, 100 ug/mL of 3.1 ×10⁻⁶ cm/s. The IC50 in data set [2] came out at 1030 nM; in data set [4], 430 nM.

As for `C#CCN(C)[C@H](C)Cc1ccc(NCc2cc(N(C)C)ccc2O)cc1`, in the data set “physchem”, the Papp at 10 h, 100 ug/mL amounted to 12.5 ×10⁻⁶ cm/s. The Activity in data set [3] is 4.52 µmol. This compound gave an IC50 in data set [4] of more than 1000 nM.

On to `C#CCN(C)[C@H](C)Cc1ccc(NCc2cc([N+](=O)[O-])ccc2O)cc1`, for which, in data set [3], the Activity turned out to be 2.1 µmol. In addition, half-maximal inhibition in [4] (IC50) required 950 nM.

As to `C#CCN(C)[C@H](C)Cc1ccc(NCc2ccccc2O)cc1`, the Activity in data set [1] is 40.4%; in [5], “Active”; in [3], 4.2 µmol; in data set [6], “Active”; in data set [7], “Active”. The Ratio IC50 in the data set listed under Homo sapiens turned out to be 25.6. Moreover, the Papp at 10 h, 100 ug/mL in “physchem” turned out to be 11.5 ×10⁻⁶ cm/s. The IC50 in data set [2] is 5370 nM; in [4] it was 210 nM.

As for `C#CCN(C)[C@H](C)Cc1ccc(NCc2cccc(OC)c2O)cc1`, the Activity in [3] came out at 2.44 µmol. In data set [4], this compound came in with a half-maximal inhibitory concentration (IC50) of more than 1000 nM.

For the compound `C#CCN(C)[C@H](C)Cc1ccc(NCc2cc(OC)ccc2O)cc1`, in the data set listed under Homo sapiens, the Ratio IC50 was found to be 3.3. This compound showed a Papp at 10 h, 100 ug/mL in the data set “physchem” of 11.7 ×10⁻⁶ cm/s. Besides, the IC50 in [2] is 1020 nM; in data set [4], 310 nM. The Activity in [3] is 3.81 µmol.

In the case of `C#CCN(C)[C@H](C)Cc1ccc(NCc2ncccc2OC)cc1`, the Activity in data set [1] stood at 69.1%; in data set [3], 1.49 µmol. The figures for the IC50 in [2] and in [4] were 3410 nM and 310 nM, respectively.

For `C#CCN(C)[C@H](C)Cc1ccc(NCc2cc(Cl)ccc2O)cc1`, in the data set filed under Homo sapiens, the Ratio IC50 is 2.2. For the same compound, the IC50 in data set [2] amounted to 700 nM; in data set [4], 310 nM. The Activity in data set [3] turned out to be 4.44 µmol.

Consider `C#CCN(C)[C@H](C)Cc1ccc(NCc2cc(F)ccc2O)cc1`, for which the Activity in [3] was found to be 2.26 µmol. This compound also displayed an IC50 in data set [4] of more than 1000 nM.

As for `C#CCN(C)[C@H](C)Cc1ccc(NCc2ncccc2C)cc1`, the Ratio IC50 in the data set filed under Homo sapiens is 10.6. This compound registered a Papp at 10 h, 100 ug/mL in the data set “physchem” of 12.1 ×10⁻⁶ cm/s. The IC50 worked out at 5530 nM in [2] and 520 nM in data set [4]. The Activity in data set [3] was found to be 1.78 µmol.

Turning to `C#CCN(C)[C@H](C)Cc1ccc(NCc2ccc(OC)cc2O)cc1`, in data set [3], the Activity amounted to 4.35 µmol. This compound also showed a half-inhibitory concentration (IC50) in [4] of more than 1000 nM.

For `CCN(CC)CCCC(C)Nc1ccnc2cc(Cl)ccc12` (stereo not given), in data set [1], the Activity is 68.2%.
